# Measured values as given in PMC8802628, “Selective activation of PFKL suppresses the phagocytic oxidative burst” (Cell, 2021).
# Tests used:
# [1] = biological target: T1, PFKL(K315R) (PFKL−pocket) (Homo sapiens, UniProt P17858, K315R); experiment: Recombinant PFKL−pocket activity assay; format: biochemical; conditions: for EC50: pH 7.5, 3.1 mM ATP, 4 mM F6P, mean ± SEM, read-out: EC50, activation of PFKL−pocket
# T1 construct: made in house; host or cells: Sf9 insect cells (baculovirus)
# T1 sequence (P17858 1-780 K315R): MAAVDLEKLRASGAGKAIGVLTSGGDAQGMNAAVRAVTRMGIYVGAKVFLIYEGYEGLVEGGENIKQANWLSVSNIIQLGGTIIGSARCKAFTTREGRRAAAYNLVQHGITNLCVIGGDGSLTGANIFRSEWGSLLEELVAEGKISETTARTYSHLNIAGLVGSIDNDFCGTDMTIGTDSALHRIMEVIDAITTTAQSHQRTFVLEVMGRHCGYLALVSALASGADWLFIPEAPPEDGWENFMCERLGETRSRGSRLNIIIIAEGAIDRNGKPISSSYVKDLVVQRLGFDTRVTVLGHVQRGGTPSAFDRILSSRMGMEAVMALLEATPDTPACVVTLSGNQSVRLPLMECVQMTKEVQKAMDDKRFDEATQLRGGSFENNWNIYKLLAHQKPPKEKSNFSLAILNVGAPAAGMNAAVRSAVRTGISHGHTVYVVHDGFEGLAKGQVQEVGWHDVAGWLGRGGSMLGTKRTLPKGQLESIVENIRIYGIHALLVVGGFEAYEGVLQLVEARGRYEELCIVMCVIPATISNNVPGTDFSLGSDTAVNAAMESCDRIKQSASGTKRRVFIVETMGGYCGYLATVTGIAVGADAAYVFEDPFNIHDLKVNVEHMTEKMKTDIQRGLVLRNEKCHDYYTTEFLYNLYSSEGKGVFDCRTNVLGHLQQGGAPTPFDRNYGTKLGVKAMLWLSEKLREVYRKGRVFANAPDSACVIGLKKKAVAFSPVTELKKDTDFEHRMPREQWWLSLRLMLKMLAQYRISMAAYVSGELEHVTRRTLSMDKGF
# Excerpt: (§1) Recombinant N-terminal His-tagged human PFKL (NP_002617), PFKM (NP_000280), and PFKP (NM_002627.4) were generated as described ([Webb et al., 2015], [2017]). Point mutants of PFK1 were generated using the QuikChange Lightning kit (Aligent).
# (§2) His-tagged PFK1 was expressed and purified as described with slight modifications ([Webb et al., 2015], [2017]). Briefly, baculovirus was generated using the Bac-to-Bac Expression system (Invitrogen). PFK1 was expressed in 2-5 × 10^6 sf9 cells at a multiplicity of infection of two for 48 h. Cells were lysed in 20 mM HEPES, pH 7.5, 80 mM potassium phosphate, 1 mM 2-mercapentoethanol, 10% glycerol, 10 mM imidazole, and EDTA-free Protease Inhibitor Cocktail (Abcam) with a Dounce homogenizer. The soluble lysate was incubated with HisPur cobalt resin (ThermoFisher Scientific). The resin was washed with 5 bead volumes lysis buffer, 10 bead volumes lysis buffer containing 2 M NaCl, and 5 further bead volumes lysis buffer. PFK1 was eluted in lysis buffer containing 100 mM imidazole. Fractions containing protein were pooled, passed over a desalting column equilibrated in freezing buffer [20 mM HEPES pH 7.5, 1 mM DTT, 500 μM ammonium sulfate, 5% glycerol, 1 mM ATP, and 100 μM EDTA] and concentrated using an Amicon Ultracel-30K Centrifugal Filter Unit (MilliporeSigma). Protein was quantified using a Bradford Protein Assay kit (ThermoFisher Scientific), and aliquotes frozen in liquid nitrogen for storage at −80°C.
# (§3) PFK1 activity was determined using the rate of FBP production via an auxiliary enzyme assay adapted to a 96-well format ([Brüser et al., 2012]; [Webb et al., 2015]). The auxiliary enzymes aldolase, triosephosphate isomerase, and glycerol phosphate dehydrogenase were purchased from MilliporeSigma as ammonium sulfate slurries and desalted using an Amicon Ultracel-10K Centrifugal Filter Unit. For assays containing FBP, the rate of ADP production was determined using the auxiliary enzymes pyruvate kinase (PK) and lactate dehydrogenase (LDH) (MilliporeSigma) in a buffer containing 250 μM phosphoenolpyruvic acid, […] NADH, 50 mM HEPES pH 7.5, 100 mM KCl, 1 mM DTT, and effector concentrations as described in the text. The temperature was equilibrated to 25°C for 5 min before initiating the reaction 10 mM MgCl2. Absorbance at 340 nm was measured using a Varioskan LUX Multimode microplate reader (ThermoFisher). Kinetic parameters were generated by nonlinear regression analysis using Prism (GraphPad Software) and are the mean of a minimum of three measurements from two independent preparations of protein. One unit of activity was defined as the amount of enzyme that catalyzed the formation of 1 μmol of fructose 1,6-bisphosphate per min at 25°C. Assays for PFKM were performed at pH 7.0 due to the pH-dependence of ATP inhibition ([Trivedi and Danforth, 1966]).
# human PFKM = biological target: T2, human PFKM (Homo sapiens, UniProt P08237); experiment: Recombinant PFKM activity assay; format: biochemical; conditions: for activation of PFKM: at concentrations up to 100 μM
# T2 construct: made in house; host or cells: Sf9 insect cells (baculovirus)
# T2 sequence (P08237 1-780): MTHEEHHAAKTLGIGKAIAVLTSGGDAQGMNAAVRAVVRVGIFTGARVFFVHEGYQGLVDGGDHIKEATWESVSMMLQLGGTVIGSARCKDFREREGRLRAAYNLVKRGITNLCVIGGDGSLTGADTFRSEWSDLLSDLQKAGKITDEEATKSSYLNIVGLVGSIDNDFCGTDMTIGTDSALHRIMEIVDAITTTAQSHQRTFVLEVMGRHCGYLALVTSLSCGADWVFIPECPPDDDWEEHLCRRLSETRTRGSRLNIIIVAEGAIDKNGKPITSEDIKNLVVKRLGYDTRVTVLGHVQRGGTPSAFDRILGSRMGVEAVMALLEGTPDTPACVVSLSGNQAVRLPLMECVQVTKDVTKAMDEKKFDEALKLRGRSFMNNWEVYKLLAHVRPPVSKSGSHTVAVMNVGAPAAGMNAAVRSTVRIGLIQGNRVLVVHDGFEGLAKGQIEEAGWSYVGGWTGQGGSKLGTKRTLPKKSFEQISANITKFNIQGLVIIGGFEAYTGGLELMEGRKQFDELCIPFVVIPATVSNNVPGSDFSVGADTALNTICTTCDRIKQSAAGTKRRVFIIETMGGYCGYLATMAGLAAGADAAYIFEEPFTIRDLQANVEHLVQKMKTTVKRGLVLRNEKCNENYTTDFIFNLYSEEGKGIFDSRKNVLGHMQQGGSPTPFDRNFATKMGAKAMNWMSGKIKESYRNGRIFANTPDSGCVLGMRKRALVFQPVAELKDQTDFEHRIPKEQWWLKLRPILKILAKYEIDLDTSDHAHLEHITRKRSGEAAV
# Excerpt: as §1, §2
# as §3, with “Assays for PFKM were performed at pH 7.0 due to the pH-dependence of ATP inhibition ([Trivedi and Danforth, 1966]).” left out
# [2] = PFKL−pocket, pH 7.5, 225 μM ATP
# [3] = PFKM wild type, pH 7.0, 250 μM ATP
smiles,measurement,setting,value
"O=C(CO)[C@@H](O)[C@H](O)[C@H](O)COP(=O)(O)O [F6P, fructose 6-phosphate]","Vmax,F6P",[1]; [2],14.68 ± 0.98 micromoles FBP per minute per milligram PFK1
same,hF6P (Hill coefficient),[1]; [2],3.26 ± 0.48
same,"Vmax,F6P",human PFKM; [3],19.14 ± 0.74 micromoles FBP per minute per milligram PFK1
same,hF6P (Hill coefficient),human PFKM; [3],4.62 ± 1.38
CC(=O)Nc1ccc2c(c1)OCc1cc(-c3ccccc3C#CCCCO)nn1C2 [NA-11],EC50,[1],167 ± 27.8 nM
same,activation of PFKM,human PFKM,failed to activate
CC(=O)Nc1ccc2c(c1)OCc1cc(-c3ccccc3)nn1C2 [NA-5],"fold change of EC50,NA-5 of PFKL−pocket versus wild-type PFKL",[1],~ 30 fold
same,EC50,[1],615 ± 138 nM
"COc1ccccc1-c1cc2n(n1)Cc1ccc(NC(C)=O)cc1OC2 [LDC7559, reference compound]",activation of PFKM,human PFKM,failed to activate
